# Laboratory results: paper PMC8779140 (Pharmaceutics, 2022)
# Entries after “also recorded” stand apart in the source; their conditions may differ. Like-named read-outs stand apart in the source and are kept apart here. *1 amine or outer side, *2 acyl side, *3 side chain or, on linkers, in order; H or OH if unused. Where a SMILES comes first, the peptide text is derived from it. Bridges are numbered along the chain shown (N, C = ends). Roman numbers before positions name the chains, in order. [ ]: non-standard residue; d: D form. Actinocin(9to1) = Cc1c2oc3c(C)ccc(C(=O)[*:1])c3nc-2c(C(=O)[*:2])c(N)c1=O; NMeV = CN[C@H](C(=O)O)C(C)C; Sar = CNCC(=O)O
# Experiments:
# [1] = biological target: T1, SARS-CoV-2 PL^pro (Severe acute respiratory syndrome coronavirus 2, UniProt P0DTD1); assay: biochemical
# T1 construct: The synthetic gene of SARS-CoV-2 PL^pro was cloned into the pET16b vector; made in house; host or cells: E. coli BL21(DE3)
# [2] = biological target: T2, human TMPRSS2 (Homo sapiens, UniProt O15393); assay: Inhibition assay of human TMPRSS2 (fluorogenic peptide); assay type: biochemical
# T2 construct: the purified MBP-tagged TMPRSS2 (residues 256-492) activity; made in house; host or cells: E. coli BL21 (DE3)
# Experimental: Cloning of TMPRSS2 was performed as previously reported. The synthetic gene encoding the catalytic domain of human TMPRSS2 (residues 256–492) was cloned into the pMAL-c5X vector (New England Biolabs). This plasmid was transformed into E. coli BL21 (DE3) for protein overexpression. Overnight culture of a single transformant (5 mL) was added to 500 mL of fresh LB medium containing […] ampicillin. The cells were grown to an OD600 of 0.6 and added with 1 mM isopropyl-β-thiogalactopyranoside for further 20 h incubation at 16 °C for recombinant protein production. The cells were harvested by centrifugation at 7000× g for 15 min.
# Purification of the maltose-binding protein (MBP)-tagged TMPRSS2 was conducted at 4 °C. The cell paste obtained from the cell culture (1 L) was suspended in a lysis buffer (40 mL) containing 25 mM Tris-HCl (pH 7.5) and 150 mM NaCl. To disrupt the cells, a French press was used. The cell-free extract was loaded onto a 10 mL amylose resin column (New England Biolabs, Ipswich, MA, USA) equilibrated with the lysis buffer. The column was washed with 10 column volumes of lysis buffer, and then the MBP-tagged TMPRSS2 bound to the amylose resin was eluted with the elution buffer (25 mM Tris, pH 7.5, 150 mM NaCl, and 10 mM maltose).
# For assaying the inhibition of the purified MBP-tagged TMPRSS2 (residues 256-492) activity, a fluorogenic peptide substrate, Boc-Gln-Ala-Arg-AMC, was used with excitation at 355 nm and emission at 460 nm. The enzyme (0.22 μM) was preincubated in the presence or absence of various concentrations of inhibitors in 20 mM HEPES and pH 7.5 assay buffer for 10 min in black 96-well immuno plates (Thermo Scientific). Next, the fluorescent substrate (10 μM) was added and incubated for 60 min at room temperature. The reactions were monitored by using a fluorescence plate reader (Fluoroskan Ascent, Thermo Labsystems, Franklin, MA, USA). The initial velocities of the inhibited reactions were plotted against the different inhibitor concentrations to yield the IC50 value by fitting with the equation A(I) = A(0) × {1 − [I/(I + IC50)]}. In this equation, A(I) is the enzyme activity with inhibitor concentration I, and A(0) is the enzyme activity without an inhibitor. For each data point, the measurements were repeated thrice to yield the mean and standard deviation.
# [3] = biological target: SARS-CoV-2 3CL^pro (Severe acute respiratory syndrome coronavirus 2, UniProt P0DTD1); assay: biochemical
# [4] = tested on: SARS-CoV-2; assay: Plaque reduction assay in Vero E6 cells; assay type: cell-based; conditions: 120 h
# [5] = tested on: Vero E6 cells; assay: Cytotoxicity seen in the plaque reduction assay; conditions: Figure 7b, seen at 0.2 μM
# [6] = biological target: spike RBD–ACE2 interaction (wild-type) (Severe acute respiratory syndrome coronavirus 2, UniProt P0DTC2); assay type: cell-based, SARS-CoV-2; conditions: RBD attachment assay
# [7] = tested on: Vero E6 cells
# [8] = cited from earlier work
# [9] = 75 nM PL^pro, 10 μM z-Arg-Leu-Arg-Gly-Gly-AMC, pH 7.5, read-out: IC50
# [10] = 0.22 μM MBP-tagged TMPRSS2 (residues 256-492), 10 μM Boc-Gln-Ala-Arg-AMC, read-out: IC50
# T2 sequence (O15393 256-492): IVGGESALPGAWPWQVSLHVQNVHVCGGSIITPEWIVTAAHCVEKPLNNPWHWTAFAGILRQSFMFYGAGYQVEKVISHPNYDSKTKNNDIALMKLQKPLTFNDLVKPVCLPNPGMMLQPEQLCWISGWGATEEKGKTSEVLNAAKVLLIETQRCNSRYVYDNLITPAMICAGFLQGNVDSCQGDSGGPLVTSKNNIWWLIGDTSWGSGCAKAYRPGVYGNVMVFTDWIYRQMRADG
smiles,measurement,setting,value
CN(C)C/C=C/C(=O)Nc1cc2c(Nc3ccc(F)c(Cl)c3)ncnc2cc1O[C@H]1CCOC1 [Afatinib],IC50,[1]; [9],45.6 ± 4.2 µM
same,IC50,[2],28.4 ± 1.5 µM
"Cc1c2oc3c(C)ccc(C(=O)N[C@@H]4C(=O)N[C@H](C(C)C)C(=O)N5CCC[C@H]5C(=O)N(C)CC(=O)N(C)[C@@H](C(C)C)C(=O)O[C@@H]4C)c3nc-2c(C(=O)N[C@@H]2C(=O)N[C@H](C(C)C)C(=O)N3CCC[C@H]3C(=O)N(C)CC(=O)N(C)[C@@H](C(C)C)C(=O)O[C@@H]2C)c(N)c1=O [Dactinomycin] (I: T[dV]P[Sar][NMeV] / II: T[dV]P[Sar][NMeV]; ester I:1-I:C, II:1-II:C; linker I:N-II:N via Actinocin(9to1))",IC50,"[3]; 35 nM 3CL^pro, 6 μM fluorogenic substrate, pH 7.0, read-out: IC50",37.6 ± 2.8 µM
same,IC50,[1]; [9],14.7 ± 2.6 µM
COc1cccc2c1C(=O)c1c(O)c3c(c(O)c1C2=O)C[C@@](O)(C(=O)CO)C[C@@H]3O[C@H]1C[C@H](N)[C@H](O)[C@H](C)O1 [Doxorubicin],antiviral activity in plaque reduction assay,[4]; 10 μM,did not effectively inhibit the replication and infection of the virus
same,IC50,[1],4.6 ± 0.8 µM
same,IC50,[2]; [10],8.2 ± 1.6 µM
CCN(CC)CCCC(C)Nc1c2ccc(Cl)cc2nc2ccc(OC)cc12 (centres unmarked) [Mepacrine],IC50,[1],4.4 ± 0.9 µM
same,IC50,[2]; [10],29.9 ± 3.7 µM
CCOc1cc2ncc(C#N)c(Nc3ccc(OCc4ccccn4)c(Cl)c3)c2cc1NC(=O)/C=C/CN(C)C [Neratinib],IC50,[1]; [9],11.6 ± 2.9 µM
same,IC50,[2]; [10],25.9 ± 3.2 µM
O=C(Nc1ccc([N+](=O)[O-])cc1Cl)c1cc(Cl)ccc1O [Niclosamide],IC50,[3],18.7 ± 0.9 µM
same,antiviral activity in plaque reduction assay,[4]; 0.2 μM,demonstrated antiviral property
same,cytotoxicity,[5],"cells appeared broken into tiny particles, revealing the cytotoxicity; also recorded: high cytotoxicity"
same,IC50,[1],16.6 ± 1.8 µM
CO[C@H]1C[C@@H]2CC[C@@H](C)[C@@](O)(O2)C(=O)C(=O)N2CCCC[C@H]2C(=O)O[C@H]([C@H](C)C[C@@H]2CC[C@@H](O)[C@H](OC)C2)CC(=O)[C@H](C)/C=C(\C)[C@@H](O)[C@@H](OC)C(=O)[C@H](C)C[C@H](C)/C=C/C=C/C=C/1C [Rapamycin],antiviral activity in plaque reduction assay,[4]; 20 μM,did not exert a significant effect on the inhibition of viral infection
same,IC50,[1]; [9],31 ± 2.4 µM
same,inhibition of RBD–ACE2 interplay (in words),[6],could not efficiently inhibit the interplay between the RBD and ACE2
same,inhibition of TMPRSS2 (in words),[2]; IC50 threshold 50 μM,did not inhibit
CC/C(=C(\c1ccccc1)c1ccc(OCCN(C)C)cc1)c1ccccc1 [Tamoxifen],cytotoxicity,[7],without apparent cytotoxicity
same,antiviral activity in plaque reduction assay,[4]; 10 μM,robustly protected cells from the viral infection
same,half-life,[8],120 to 170 h
same,IC50,[2],21.4 ± 1.6 µM
